Experimental data from ChEMBL document CHEMBL1201862, “PubChem BioAssay data set” (2004).
Where a name gives a salt, the structure may show the parent alone.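 Briefly, cells in 96-well plates were exposed to five compound concentrations for 48 h, and endpoints were estimated by linear interpolation. The concentration for 50% growth inhibition is given as GI50.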 The source made the active and inactive calls. No stated cut-off is given here; in the data, active = GI50 up to about 1.1 µM and inactive = higher.

Experiments:
Assay in all cases: growth of human tumour cells (NCI), 48 h
[1] = system: 786-0
[2] = system: A498
[3] = system: ACHN
[4] = system: CAKI-1
[5] = system: CCRF-CEM
[6] = system: COLO 205
[7] = system: DU-145
[8] = system: EKVX
[9] = system: HCC 2998
[10] = system: HCT-116
[11] = system: HCT-15
[12] = system: HL-60
[13] = system: HOP-62
[14] = system: HOP-92
[15] = system: HT-29
[16] = system: Hs-578T
[17] = system: IGROV-1
[18] = system: K562
[19] = system: KM12
[20] = system: LOX IMVI
[21] = system: M14
[22] = system: MCF7
[23] = system: MDA-MB-231
[24] = system: MDA-MB-435
[25] = system: NCI-H226
[26] = system: NCI-H23
[27] = system: NCI-H460
[28] = system: NCI/ADR-RES
[29] = system: OVCAR-4
[30] = system: OVCAR-8
[31] = system: PC-3
[32] = system: RPMI-8226
[33] = system: RXF 393
[34] = system: SF-268
[35] = system: SF-295
[36] = system: SF-539
[37] = system: SK-MEL-28
[38] = system: SK-MEL-2
[39] = system: SK-MEL-5
[40] = system: SK-OV-3
[41] = system: SNB-19
[42] = system: SNB-75
[43] = system: SR
[44] = system: SW-620
[45] = system: T47D
[46] = system: TK-10
[47] = system: U-251
[48] = system: UACC-257
[49] = system: UACC-62
[50] = system: UO-31
[51] = system: A549
[52] = system: MDA-N
[53] = system: MOLT-4
[54] = system: Malme-3M
[55] = system: SN12C
[56] = system: NCI-H522
[57] = system: OVCAR-3
[58] = system: OVCAR-5

O=C(/C=C\c1ccccc1)N1CCc2ccccc2C1
GI50 [1]: 87.5 µM (inactive) | GI50 [2]: 53.2 µM (inactive) | GI50 [3]: 38.2 µM (inactive) | GI50 [4]: 67.1 µM (inactive) | GI50 [5]: 29 µM (inactive) | GI50 [6]: 20.6 µM (inactive) | GI50 [7]: > 100 µM (inactive) | GI50 [8]: 32.4 µM (inactive) | GI50 [9]: > 100 µM (inactive) | GI50 [10]: 34.6 µM (inactive) | GI50 [11]: 55.8 µM | GI50 [12]: 29.8 µM (inactive) | GI50 [13]: > 100 µM (inactive) | GI50 [14]: 42.6 µM (inactive) | GI50 [15]: 51.4 µM (inactive) | GI50 [16]: 60.7 µM (inactive) | GI50 [17]: 73.8 µM (inactive) | GI50 [18]: 19.4 µM (inactive) | GI50 [19]: 36.5 µM (inactive) | GI50 [20]: 79.1 µM (inactive) | GI50 [21]: 60.5 µM (inactive) | GI50 [22]: 49.7 µM (inactive) | GI50 [23]: > 100 µM (inactive) | GI50 [24]: 27.2 µM (inactive) | GI50 [25]: > 100 µM (inactive) | GI50 [26]: 14.9 µM (inactive) | GI50 [27]: 60.3 µM (inactive) | GI50 [28]: 44 µM (inactive) | GI50 [29]: 93.1 µM (inactive) | GI50 [30]: 51.9 µM (inactive) | GI50 [31]: 34.4 µM (inactive) | GI50 [32]: 23.5 µM (inactive) | GI50 [33]: 44.4 µM (inactive) | GI50 [34]: 49.7 µM (inactive) | GI50 [35]: 34.9 µM (inactive) | GI50 [36]: 49.8 µM (inactive) | GI50 [37]: 61 µM (inactive) | GI50 [38]: 31.3 µM (inactive) | GI50 [39]: 17.1 µM (inactive) | GI50 [40]: > 100 µM (inactive) | GI50 [41]: 67.8 µM (inactive) | GI50 [42]: 52.7 µM (inactive) | GI50 [43]: 24.1 µM (inactive) | GI50 [44]: 63.5 µM (inactive) | GI50 [45]: 20.1 µM (inactive) | GI50 [46]: > 100 µM (inactive) | GI50 [47]: 80.7 µM (inactive) | GI50 [48]: 38.9 µM (inactive) | GI50 [49]: 43.4 µM (inactive) | GI50 [50]: 39 µM (inactive)

COc1ccc(C(=O)/C=C/c2ccc(OCC(=O)N3CCN(c4ccccc4)CC3)cc2)cc1OC
GI50 [1]: 5.31 µM (inactive) | GI50 [51]: 5.36 µM (inactive) | GI50 [4]: 5.28 µM (inactive) | GI50 [5]: 2.52 µM (inactive) | GI50 [6]: > 10 µM (inactive) | GI50 [7]: 1.42 µM (inactive) | GI50 [8]: 7.01 µM (inactive) | GI50 [9]: 5.3 µM (inactive) | GI50 [11]: 4.84 µM | GI50 [12]: 2.88 µM (inactive) | GI50 [13]: 4.46 µM (inactive) | GI50 [15]: 4.07 µM (inactive) | GI50 [17]: 9.38 µM (inactive) | GI50 [18]: 3.14 µM (inactive) | GI50 [19]: 4.15 µM (inactive) | GI50 [21]: 6.28 µM (inactive) | GI50 [22]: 2.9 µM (inactive) | GI50 [23]: 4.69 µM (inactive) | GI50 [52]: 3.21 µM (inactive) | GI50 [53]: 2.34 µM (inactive) | GI50 [54]: 5.96 µM (inactive) | GI50 [26]: 2.05 µM (inactive) | GI50 [30]: 4.29 µM (inactive) | GI50 [31]: 3.56 µM (inactive) | GI50 [32]: 3.33 µM (inactive) | GI50 [33]: 1.83 µM (inactive) | GI50 [34]: 3.39 µM (inactive) | GI50 [35]: 6.3 µM (inactive) | GI50 [37]: 6.68 µM (inactive) | GI50 [39]: 4.52 µM (inactive) | GI50 [40]: 6.07 µM (inactive) | GI50 [55]: 4.82 µM (inactive) | GI50 [42]: 3.72 µM (inactive) | GI50 [43]: 2.18 µM (inactive) | GI50 [44]: 5.73 µM (inactive) | GI50 [45]: 5.89 µM (inactive) | GI50 [46]: > 10 µM (inactive) | GI50 [48]: 3.37 µM (inactive) | GI50 [49]: 5.58 µM (inactive)

COc1cc([C@@H]2c3cc4c(cc3[C@@H](Nc3ccc(NC(=O)c5cc([N+](=O)[O-])cn5C)cc3)[C@H]3COC(=O)[C@H]23)OCO4)cc(OC)c1O
GI50 [1]: 0.0491 µM (active) | GI50 [51]: < 0.0124 µM (active) | GI50 [3]: 0.0213 µM (active) | GI50 [5]: < 0.01 µM (active) | GI50 [6]: 0.254 µM (active) | GI50 [7]: 0.0143 µM (active) | GI50 [8]: 0.333 µM (active) | GI50 [9]: 0.243 µM (active) | GI50 [10]: 0.114 µM (active) | GI50 [11]: 0.365 µM | GI50 [12]: 0.0176 µM (active) | GI50 [13]: 0.0179 µM (active) | GI50 [14]: 0.132 µM (active) | GI50 [15]: 0.171 µM (active) | GI50 [17]: 0.173 µM (active) | GI50 [18]: 0.108 µM (active) | GI50 [19]: 0.22 µM (active) | GI50 [21]: 0.0731 µM (active) | GI50 [22]: < 0.01 µM (active) | GI50 [53]: < 0.01 µM (active) | GI50 [26]: 0.0385 µM (active) | GI50 [27]: < 0.01 µM (active) | GI50 [56]: 0.272 µM (active) | GI50 [57]: 0.427 µM (active) | GI50 [58]: 0.419 µM (active) | GI50 [30]: 0.141 µM (active) | GI50 [31]: 0.188 µM (active) | GI50 [33]: 0.243 µM (active) | GI50 [34]: 0.191 µM (active) | GI50 [36]: 0.0577 µM (active) | GI50 [37]: 1.22 µM (inactive) | GI50 [38]: 1.21 µM (inactive) | GI50 [41]: 0.0538 µM (active) | GI50 [42]: 0.0498 µM (active) | GI50 [44]: 0.135 µM (active) | GI50 [45]: 0.0266 µM (active) | GI50 [46]: 0.348 µM (active) | GI50 [48]: 0.581 µM (active) | GI50 [49]: 0.0828 µM (active) | GI50 [50]: 0.244 µM (active)

COc1cc2nc(N3CCN(C(=O)c4ccco4)CC3)nc(N)c2cc1OC [PRAZOSIN HYDROCHLORIDE]
GI50 [26]: 13.7 µM (inactive)
